Test results: patent US20250314636A1, “METHOD OF PREPARING AND EXPANDING A POPULATION OF IMMUNE CELLS FOR CANCER THERAPY, POTENCY ASSAY FOR TUMOR RECOGNITION, BIOLOGICAL VACCINE PREPARATION AND EPITOPETARGET FOR ANTIBODIES” (FUNDAÇÃO D. ANNA DE SOMMER CHAMPALIMAUD E DR. CARLOS MONTEZ …, priority 2022, published 2025)
Like-named read-outs stand apart in the source and are kept apart here.

Key:
[1] = tested on: PANC-1; assay: Cellular recognition assay: allogeneic tumor cell line PANC-1; format: cell-based, human; settings: CD1d restricted IFN-γ production
Protocol: All antibodies are commercially available.
siRNA against MR1 was used to silence MR1 expression using Silencer Select Pre-designed siRNA (Ambion, Thermo Fisher)). A scramble siRNA was used as negative control (Ambion, Thermo Fisher). Briefly, target cells were seeded 24 h before transfection, both siRNAs were used at 10 μM with lipofectamine RNA iMAX diluted in OptiMEM, incubated for 5 minutes, and added on top of the cells. Cells were incubated for 48 h before being used on the respective assays.
Autologous tumor, confirmed by standard histology, was viably snap frozen and then thawed to be used as targets in recognition assays once TIL had been expanded. Small autologous tumor pieces (1 mm^3) from tumor areas that contained tumor cells were tested in duplicates. TIL were incubated with tumor pieces or allogeneic tumor cells in CellGenix GMP DC media supplemented with 10% serum in the presence of IL-2 (50 IU/mL) and IL-15 (10 IU/mL) for testing MAIT—cells. TCR αβ T-cells or TCR γδ cells were tested for autologous or allogeneic tumor recognition using 100 IU IL-2/mL and 100 IU IL-15/mL; or using 100 IU IL-7/mL combined with 100 IU IL-15/mL. […]

[2] = tested on: TIL
Protocol: TIL were seeded at 10^4/well in medium with 10% human serum added 24 h later and reduced cytokine concentrations (IL-2 at 100 IU/mL, IL-15 at 100 IU/mL). Supernatants were tested for IFN-γ production with the Human IFN-γ ELISA basic kit (HRP) (Mabtech, 3420-1H-6) according to the manufacturer's instructions. The assay can also be performed using IL-7 at 100 IU/mL and 100 IU IL-15/mL).
MHC class I responses were blocked using mAb clone w6/32 (mouse IgG2a) at 10 μg/mL, anti-HLA-DR clone L243 (mouse IgG2a) at 10 μg/mL, anti-HLA-DP clone B7/21 (mouse IgG3) at 10 μg/mL, anti-CD1d clone CD1d42 (mouse IgG1) at 10 μg/mL. Isotype control antibodies included mouse IgG2a and mouse IgG1 at 10 μg/mL. MR1 responses were blocked using the mAb clone 26.5 (mouse IgG2a) at 10 μg/mL. All antibodies are commercially available.

[3] = tested on: TIL; assay: Peptide recognition assay in TIL (IFN-γ ELISA / IL-17 in supernatant, 7 days); format: cell-based, human; set-up: IFN-γ production, TIL: unit not given here; settings: for IFN-γ production, TIL: 10e4 TIL/well co-cultured with the peptide for 7 days, supernatant tested; for Pancreatic TIL D1599 IFN-y / Pancreatic TILD1599 IL 17: Pancreatic TIL D1599; for IFN-γ production (in words): positive controls
Protocol: (§1) Peptides from tumor-associated antigens (TAAs), listed in Table 5 were placed at 1 ug/well in duplicates using anti-CD3 at 30 ng/mL as well as PHA at 5 μg/mL as positive controls.
(§2) The differences in TIL versus PBMCs can also be defined by peptide reactivity. 10e^4 TIL or 10e^4 PBMC/well were co-cultured with the peptides listed in Table 11 below for 7 days and the supernatants were tested for IFN-γ production.

[4] = tested on: PBMCs; assay: Peptide recognition assay in PBMCs (IFN-γ in supernatant, 7 days); format: cell-based, human; settings: for IFN-γ production, PBMCs: 10e4 PBMC/well co-cultured with the peptide for 7 days, supernatant tested; for PBMCs IFN-y: PBMCs harvested same day as skin lesion
Protocol: as §1, §2

[5] = tested on: Posterior skin lesion T-cells; assay: Peptide recognition by T-cells expanded from skin lesions (IFN-γ, 7 days); format: cell-based, human; settings: T-cells expanded from skin lesion of patient with solid cancer
Protocol: as §1

[6] = TIL that reacted against Human U11/U12 snRNP 35 kDa protein (81-90) tailored for HLA-B3501, + anti-ABC
[7] = TIL that reacted against Human U11/U12 snRNP 35 kDa protein (81-90) tailored for HLA-B3501, + anti-DR
[8] = TIL that reacted against Human U11/U12 snRNP 35 kDa protein (81-90) tailored for HLA-B3501, no blocking antibody
[9] = TIL that reacted against SARS-CoV-2 spike (212-220) tailored for HLA-B3501, + anti-ABC
[10] = TIL that reacted against SARS-CoV-2 spike (212-220) tailored for HLA-B3501, + anti-DR
[11] = TIL that reacted against SARS-CoV-2 spike (212-220) tailored for HLA-B3501, no blocking antibody

Cc1oncc1C(=O)Nc1ccc(C(F)(F)F)cc1 [Leflunomide] was tested, and the “PANC-1 recognition by γδ+ TIL after pretreatment of PANC-1 cells” value [1] was “not changed”.

COc1cccc2c1C(=O)c1c(O)c3c(c(O)c1C2=O)C[C@@](O)(C(=O)CO)C[C@@H]3O[C@H]1C[C@H](N)[C@H](O)[C@H](C)O1 [doxorubicin] was tested, and the “PANC-1 recognition by γδ+ TIL after pretreatment of PANC-1 cells” value [1] was “not changed”.

With LP(V)RDLPQGF the “IFN-γ Production” value [2, 6] was 2062.87, the “IL-17 Production” value [2, 6] was 12.68 and the “IFN-γ Production” value [2, 7] was 1974.19. The “IL-17 Production” value [2, 7] was 257.46, the “IFN-γ Production” value [2, 8] was 2611.08 and the “IL-17 Production” value [2, 8] was 238.70. For the same compound, the “IFN-γ Production” value [2, 9] was 138.58, the “IL-17 Production” value [2, 9] was 0.00 and the “IFN-γ Production” value [2, 10] was 1057.65. The “IL-17 Production” value [2, 10] was 428.92, the “IFN-γ Production” value [2, 11] was 1457.59 and the “IL-17 Production” value [2, 11] was 462.99.

LP(V)RDLVTGF was tested, and the “IFN-γ Production” value [2, 6] was 1908.56, the “IL-17 Production” value [2, 6] was 81.91 and the “IFN-γ Production” value [2, 7] was 1509.64. The “IL-17 Production” value [2, 7] was 444.01, the “IFN-γ Production” value [2, 8] was 2444.61 and the “IL-17 Production” value [2, 8] was 330.14. For the same compound, the “IFN-γ Production” value [2, 9] was 879.62, the “IL-17 Production” value [2, 9] was 0.00 and the “IFN-γ Production” value [2, 10] was 1289.42. The “IL-17 Production” value [2, 10] was 420.07, the “IFN-γ Production” value [2, 11] was 1230.50 and the “IL-17 Production” value [2, 11] was 372.84.

For “OKT3: anti-CD3 directed antibody crosslinking the T-cell receptor, 30 ng/ml from Biolegend or Human Cell [reference compound]”, the “IFN-γ production, TIL” value [3] was 0, the “Pancreatic TIL D1599 IFN-y” value [3] was 200 pg/mL and the “Pancreatic TILD1599 IL 17” value [3] was 0 pg/mL. For the same compound, the “IFN-γ production (in words)” value ([3]; TIL D1599) was “Strong IFN-γ production”, the “IFN-γ production, PBMCs” value [4] was 63 and the “PBMCs IFN-y” value ([4]; first PBMCs column) was 0.0 pg/ml/7 days. The “PBMCs IFN-y” value ([4]; second PBMCs column) was 0.0 pg/ml/7 days, the “Posterior skin lesion T-cells IFN-y” value [5] was 27.0 pg/ml/7 days and the “IFN-γ Production” value [2, 8] was 3333.24. For the same compound, the “IL-17 Production” value [2, 8] was 417.70, the “IFN-γ Production” value [2, 11] was 2540.06 and the “IL-17 Production” value [2, 11] was 305.99.

With TPLPVTDASSASTGH the “IFN-γ production, TIL” value [3] was 0 and the “IFN-γ production, PBMCs” value [4] was 0.

In the case of TPLPVTDNSSASTGD, the “IFN-γ production, TIL” value [3] is reported as 0 and the “IFN-γ production, PBMCs” value [4] is reported as 0.

TPLPVTDTSSASTGD was tested, and the “IFN-γ production, TIL” value [3] was 0 and the “IFN-γ production, PBMCs” value [4] was 0.

For TPLPVTDTSSASTGH, the “IFN-γ production, TIL” value [3] was 0 and the “IFN-γ production, PBMCs” value [4] was 0.

With TTPLPVTIPSSASSG the “IFN-γ production, TIL” value [3] was 0 and the “IFN-γ production, PBMCs” value [4] was 0.

For TTPLPVTSPSSASSG, the “IFN-γ production, TIL” value [3] was 0 and the “IFN-γ production, PBMCs” value [4] was 0.

In the case of VTDASSASTGH, the “IFN-γ production, TIL” value [3] is reported as 0 and the “IFN-γ production, PBMCs” value [4] is reported as 0.

VTDTSSASTGH was tested, and the “IFN-γ production, TIL” value [3] was 0 and the “IFN-γ production, PBMCs” value [4] was 0.

In the case of WAVRPQDLDTCDPRQ, the “IFN-γ production, TIL” value [3] is reported as 0 and the “IFN-γ production, PBMCs” value [4] is reported as 0.

YEQLDVLKHKLDELY was tested, and the “IFN-γ production, TIL” value [3] was 0 and the “IFN-γ production, PBMCs” value [4] was 0.

In the case of YKLVVVGAAGVGKSALT, the “IFN-γ production, TIL” value [3] is reported as 0 and the “IFN-γ production, PBMCs” value [4] is reported as 0.

For YKLVVVGACGVGKSALT, the “IFN-γ production, TIL” value [3] was 0 and the “IFN-γ production, PBMCs” value [4] was 0.

YKLVVVGADGVGKSALT was tested, and the “IFN-γ production, TIL” value [3] was 0 and the “IFN-γ production, PBMCs” value [4] was 0.

For YKLVVVGAGGVGKSALT, the “IFN-γ production, TIL” value [3] was 0 and the “IFN-γ production, PBMCs” value [4] was 0.

YKLVVVGARGVGKSALT was tested, and the “IFN-γ production, TIL” value [3] was 0 and the “IFN-γ production, PBMCs” value [4] was 0.

In the case of YKLVVVGASGVGKSALT, the “IFN-γ production, TIL” value [3] is reported as 0 and the “IFN-γ production, PBMCs” value [4] is reported as 0.

With YKLVVVGAVGVGKSALT the “IFN-γ production, TIL” value [3] was 0 and the “IFN-γ production, PBMCs” value [4] was 0.

For “phytohemagglutinin [PHA, reference compound]”, the “IFN-γ production, TIL” value [3] was 1336, the “Pancreatic TIL D1599 IFN-y” value [3] was 417 pg/mL and the “Pancreatic TILD1599 IL 17” value [3] was 4 pg/mL. For the same compound, the “IL-17 production (in words)” value ([3]; positive control, TIL D1599) was “only limited amount of IL-17 production”, the “IFN-γ production (in words)” value ([3]; TIL D1599) was “Strong IFN-γ production” and the “IFN-γ production, PBMCs” value [4] was 71. The “PBMCs IFN-y” value ([4]; first PBMCs column) was 165.7 pg/ml/7 days, the “PBMCs IFN-y” value ([4]; second PBMCs column) was 165.7 pg/ml/7 days and the “Posterior skin lesion T-cells IFN-y” value [5] was 901.0 pg/ml/7 days.
